Experimental data from patent US20160287566A1, “Anti-demodectic active agents and topical compositions for the treatment of demodicosis in humans and animals” (priority 2015, published 2016).
“Also recorded” adds a separate entry of the source.

Key:
Demodex = test: Human in vivo testing of topical compositions (inventor's self-test, once daily at night) on signs and symptoms of demodicosis
Description: Demodectic mites rapidly desiccate and die when removed from the body and cannot reproduce in vitro, and skin conditions triggered by demodex are part of a complex innate immune response not yet fully explained by medical research. […] Treatment is preferentially once-daily, at night, with topical applications, of a rinse-off shampoo/shower gel, and of a leave-on skin lotion. Treatment of the inflammatory response to demodex with compositions comprising the invention is novel and not previously reported. Treatment of the inflammatory response to demodex includes treatment of type 1 flushing rosacea, type 2 acne rosacea, type 4 ocular rosacea, demodicosis gravis, granulomatous rosacea, and pityriasis folliculorum, and treatment of demodicosis in mammalian quadrupeds, namely, demodectic mange.
Sebaceous glands and meibomian glands clogged by mite-detritus atrophy somewhat, extending the time for complete meibomian gland and pilosebaceous unit healing to approximately 110 days.^12 The foregoing results are consistent with the suppression or eradication of demodectic mites, establishing piroctone olamine treatment as anti-demodectic, as shown by the reduction or elimination of blepharitis, meibomian gland dysfunction, and papules about the eyelids, nose, lips, and lip margins.
The rinse-off cleanser of the compositions comprising the invention, is used as a typical topical shampoo/shower gel, and can be used over the entire scalp and body, with the exception that the rinse-off cleanser is applied to a wet body and lathered without running shower-water, so that the cleanser can be massaged onto the skin and scalp for 3 to 5 minutes, paying particular attention to the face and margins of the eyelids, and then rinsed off. Neither composition is intended to be applied directly onto the cornea, as the eyes are expected to be shut when applying either composition.
The leave-on lotion described herein is used as any typical lotion, and can be used over the entire body, paying particular attention to the face and margins of the eyes, preferentially at night. […]

[1] = usage thousands of time in excess of the compositions disclosed; cited from earlier work
[2] = cited from earlier work
Malassezia = test: Self-treatment of seborrheic dermatitis with climbazole topical products; type: in vivo, human; conditions: rinse-off shampoo/shower gel and leave-on lotion with 0.07% climbazole as active ingredient, MCT oil base
Description: A brief history underscores the relevance of the test results. […] Dermatitis caused a severe impairment in the quality of life. Therefore, beginning three years ago, the inventor studied dermal inflammations, to conduct an accurate differential diagnosis and treat their skin condition. […] Hegor's product however contains sodium lauryl sulfate, which irritates the skin and so this shampoo cannot be used as a leave-on lotion. Moreover, all commercial lotions are formulated with oils with carbon-chain lengths longer than 10 such that Malassezia metabolizes all commercial lotions, which greatly exacerbated the inventor's seborrheic dermatitis. (See, non-patent reference number 30, by Wilde.) Dissatisfied with commercial products that made seborrheic skin conditions worse, sixteen months ago the inventor compounded topical compositions, a rinse-off shampoo/shower gel and a leave-on lotion, where the active ingredient was 0.07% climbazole and the base-oil was exclusively MCT oil (caprylic/capric oil), comprised only of carbon chain lengths of C8 and C10. While using this compounded topical treatment, all symptoms of seborrheic dermatitis induced by Malassezia were eliminated approximately one year ago. […]

## Cc1cc(CC(C)CC(C)(C)C)n(O)c(=O)c1.NCCO (stereo not shown) [piroctone olamine, 1-Hydroxy-4methyl-6-(2,4,4-trimethylpentyl)-2(1H) pyridinone, 2-aminoethanol salt]
Demodex; after compounding and testing the compositions, human test subject
  anti-demodectic treatment effect (concluded from symptom relief): effective anti-demodectic treatment
Demodex; topical compositions with 0.14% piroctone olamine as oil in water emulsion, rinse-off shampoo/shower gel and leave-on lotion once daily at night
  symptoms and signs of blepharitis, meibomian gland dysfunction, and papules about the eyelid margins and lip margins: reduced and eliminated; also recorded: rapid and dramatic reduction
[1]
  toxicity in topical usage: non-toxic
[2]
  solubility in water: barely soluble

## CC(C)(C)C(=O)C(Oc1ccc(Cl)cc1)n1ccnc1 (stereo not shown) [climbazole, 1-(4-Chlorophenoxy)-1-(imidazol-1-yl)-3,3-dimethyl-2-butanone]
Demodex; under 0.07% climbazole-only compositions, after seborrheic dermatitis symptoms were eliminated
  red eye and dry eye symptoms: increased significantly
Malassezia
  symptoms of seborrheic dermatitis induced by Malassezia: eliminated
[2]
  solubility in water: barely soluble
